Laboratory results: PubChem BioAssay AID248 (DTP/NCI, 2004)
“And” between values parts separate entries of the source, which are not always exact repeats. Identical values can stand only once. Toxic doses and inconclusive results are not listed. No stated cut-off is given here; in the data, active means T/C of 150% or more; inactive means T/C below 125%.

Test system: L1210 leukemia ip in BDF1 mice, survival T/C
Assay: NCI In Vivo Anticancer Drug Screen. Data for tumor model L1210 Leukemia (intraperitoneal) in B6D2F1 (BDF1) mice
Details: endpoint: mean survival time, higher = longer survival
How it was run: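 Transplantable tumor model; survival measured in treated vs vehicle control mice. Value = treated/control.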

[1] = dose: 25.0 mg/kg/injection, schedule: Q01DX009 (ip), vehicle: saline
[2] = dose: 50.0 mg/kg/injection, schedule: Q01DX009 (ip), vehicle: saline
[3] = dose: 100.0 mg/kg/injection, schedule: Q01DX009 (ip), vehicle: saline
[4] = dose: 100.0 mg/kg/injection, schedule: Q04DX003 (ip), vehicle: saline
[5] = dose: 200.0 mg/kg/injection, schedule: Q04DX003 (ip), vehicle: saline
[6] = dose: 100.0 mg/kg/injection, schedule: Q01DX001 (ip), vehicle: saline
[7] = dose: 200.0 mg/kg/injection, schedule: Q01DX001 (ip), vehicle: saline
[8] = dose: 100.0 mg/kg/injection, schedule: Q04DX003 (ip), vehicle: Klucel (hydroxypropylcellulose) (HPC)
[9] = dose: 200.0 mg/kg/injection, schedule: Q04DX003 (ip), vehicle: Klucel (hydroxypropylcellulose) (HPC)
[10] = dose: 400.0 mg/kg/injection, schedule: Q04DX003 (ip), vehicle: Klucel (hydroxypropylcellulose) (HPC)
[11] = dose: 100.0 mg/kg/injection, schedule: Q01DX001 (ip), vehicle: carboxymethylcellulose (CMC)
[12] = dose: 200.0 mg/kg/injection, schedule: Q01DX001 (ip), vehicle: carboxymethylcellulose (CMC)
[13] = dose: 400.0 mg/kg/injection, schedule: Q01DX001 (ip), vehicle: carboxymethylcellulose (CMC)

Measured: T/C

O=C(Cl)COc1cc(Cl)c(Cl)cc1Cl
inactive: dose: 100.0 mg/kg/injection, schedule: Q04DX002 (ip), vehicle: gum acacia 106 % of control | dose: 200.0 mg/kg/injection, schedule: Q04DX002 (ip), vehicle: gum acacia 110 % of control

Cc1nccnc1N
inactive: [1] 112 % of control | [2] 110 % of control | [3] 95 % of control and 108 % of control | [4] 98 % of control | [5] 109 % of control | dose: 400.0 mg/kg/injection, schedule: Q04DX003 (ip), vehicle: saline 102 % of control

COc1ccc2c(c1)/C(=C/CCN(C)C)c1ccccc1S2
inactive: dose: 6.0 mg/kg/injection, schedule: Q01DX Z (ip), vehicle: methylcellulose (MC) 110 % of control | dose: 6.25 mg/kg/injection, schedule: Q01DX009 (ip), vehicle: carboxymethylcellulose (CMC) 97 % of control | dose: 12.0 mg/kg/injection, schedule: Q01DX Z (ip), vehicle: methylcellulose (MC) 114 % of control | dose: 12.5 mg/kg/injection, schedule: Q01DX001 (ip), vehicle: carboxymethylcellulose (CMC) 100 % of control | dose: 12.5 mg/kg/injection, schedule: Q01DX009 (ip), vehicle: carboxymethylcellulose (CMC) 108 % of control | dose: 12.5 mg/kg/injection, schedule: Q04DX003 (ip), vehicle: other 105 % of control | dose: 15.0 mg/kg/injection, schedule: Q01DX Z (ip), vehicle: methylcellulose (MC) 104 % of control | dose: 20.0 mg/kg/injection, schedule: Q01DX Z (ip), vehicle: methylcellulose (MC) 119 % of control | dose: 25.0 mg/kg/injection, schedule: Q01DX001 (ip), vehicle: carboxymethylcellulose (CMC) 100 % of control | dose: 25.0 mg/kg/injection, schedule: Q04DX003 (ip), vehicle: other 101 % of control | dose: 50.0 mg/kg/injection, schedule: Q01DX001 (ip), vehicle: carboxymethylcellulose (CMC) 114 % of control

Cc1nc(N)[nH]c(=O)c1N=Nc1ccc(S(=O)(=O)O)cc1
inactive: dose: 50.0 mg/kg/injection, schedule: Q01DX001 (ip), vehicle: saline 98 % of control | [6] 98 % of control | [7] 104 % of control

NNC(=O)CCN1CC1
inactive: [8] 109 % of control | [9] 107 % of control | [10] 115 % of control

O=P(c1c(F)c(F)c(F)c(F)c1F)(c1c(F)c(F)c(F)c(F)c1F)c1c(F)c(F)c(F)c(F)c1F
inactive: dose: 100.0 mg/kg/injection, schedule: Q01DX001 (ip), vehicle: saline with Tween-80 91 % of control | dose: 200.0 mg/kg/injection, schedule: Q01DX001 (ip), vehicle: saline with Tween-80 91 % of control

CCCCC(=O)N/N=C/c1ccc(Cl)cc1
inactive: [11] 93 % of control | [12] 107 % of control | [13] 91 % of control

N#CC1(Nc2cccc(C(F)(F)F)c2)CCCCC1
inactive: dose: 100.0 mg/kg/injection, schedule: Q01DX009 (ip), vehicle: Klucel (hydroxypropylcellulose) (HPC) 94 % of control | dose: 200.0 mg/kg/injection, schedule: Q01DX009 (ip), vehicle: Klucel (hydroxypropylcellulose) (HPC) 105 % of control | dose: 400.0 mg/kg/injection, schedule: Q01DX009 (ip), vehicle: Klucel (hydroxypropylcellulose) (HPC) 100 % of control

CCNCCC[P+](c1ccccc1)(c1ccccc1)c1ccccc1
inactive: dose: 25.0 mg/kg/injection, schedule: Q04DX002 (ip), vehicle: saline 98 % of control | dose: 50.0 mg/kg/injection, schedule: Q04DX002 (ip), vehicle: saline 105 % of control | dose: 100.0 mg/kg/injection, schedule: Q04DX002 (ip), vehicle: saline 98 % of control and 91 % of control

O=S(=O)(CC12CC1(O)C1CCC2C1)c1ccccc1 (stereo not drawn)
inactive: [1] 104 % of control | [2] 104 % of control | [6] 108 % of control | [3] 93 % of control | [4] 103 % of control | [7] 103 % of control | [5] 100 % of control | dose: 400.0 mg/kg/injection, schedule: Q01DX001 (ip), vehicle: saline 107 % of control

CC(C)(C)C1CC=CCC1 (stereo not drawn)
inactive: dose: 50.0 mg/kg/injection, schedule: Q01DX009 (ip), vehicle: saline sonified 96 % of control | dose: 100.0 mg/kg/injection, schedule: Q01DX009 (ip), vehicle: saline sonified 102 % of control | dose: 200.0 mg/kg/injection, schedule: Q01DX009 (ip), vehicle: saline sonified 100 % of control

CCOCC1COC(c2ccc3c(c2)OCO3)O1 (stereo not drawn)
inactive: dose: 222.0 mg/kg/injection, schedule: Q01DX Z (ip), vehicle: methylcellulose (MC) 102 % of control | dose: 333.0 mg/kg/injection, schedule: Q01DX Z (ip), vehicle: methylcellulose (MC) 104 % of control | dose: 500.0 mg/kg/injection, schedule: Q01DX Z (ip), vehicle: methylcellulose (MC) 102 % of control

NC(CSSCC(N)C(=O)O)C(=O)O (stereo not drawn)
inactive: [11] 95 % of control | [8] 93 % of control | [12] 94 % of control | [9] 93 % of control | [13] 95 % of control | [10] 91 % of control

CC(C)(C)c1cc(C[P+](c2ccc(Cl)cc2)(c2ccc(Cl)cc2)c2ccc(Cl)cc2)cc(C(C)(C)C)c1O
inactive: dose: 12.5 mg/kg/injection, schedule: Q01DX009 (ip), vehicle: Klucel (hydroxypropylcellulose) (HPC) 97 % of control | dose: 25.0 mg/kg/injection, schedule: Q01DX009 (ip), vehicle: Klucel (hydroxypropylcellulose) (HPC) 88 % of control | [8] 98 % of control | [9] 100 % of control

Cc1ccc(C(O)c2cnc(C)n2Cc2ccccc2)cc1 (stereo not drawn)
inactive: dose: 100.0 mg/kg/injection, schedule: Q01DX009 (ip), vehicle: carboxymethylcellulose (CMC) 96 % of control | dose: 100.0 mg/kg/injection, schedule: Q04DX002 (ip), vehicle: Klucel (hydroxypropylcellulose) (HPC) 94 % of control | dose: 100.0 mg/kg/injection, schedule: Q04DX002 (ip), vehicle: carboxymethylcellulose (CMC) 94 % of control and 112 % of control | dose: 100.0 mg/kg/injection, schedule: Q04DX003 (ip), vehicle: carboxymethylcellulose (CMC) 107 % of control | dose: 200.0 mg/kg/injection, schedule: Q01DX009 (ip), vehicle: carboxymethylcellulose (CMC) 100 % of control and 107 % of control | dose: 200.0 mg/kg/injection, schedule: Q04DX002 (ip), vehicle: Klucel (hydroxypropylcellulose) (HPC) 109 % of control | dose: 200.0 mg/kg/injection, schedule: Q04DX002 (ip), vehicle: carboxymethylcellulose (CMC) 94 % of control and 98 % of control | dose: 200.0 mg/kg/injection, schedule: Q04DX003 (ip), vehicle: carboxymethylcellulose (CMC) 92 % of control | dose: 400.0 mg/kg/injection, schedule: Q01DX009 (ip), vehicle: carboxymethylcellulose (CMC) 96 % of control and 86 % of control | dose: 400.0 mg/kg/injection, schedule: Q04DX002 (ip), vehicle: Klucel (hydroxypropylcellulose) (HPC) 88 % of control | dose: 400.0 mg/kg/injection, schedule: Q04DX002 (ip), vehicle: carboxymethylcellulose (CMC) 94 % of control and 95 % of control | dose: 400.0 mg/kg/injection, schedule: Q04DX003 (ip), vehicle: carboxymethylcellulose (CMC) 96 % of control

Clc1ccc(-c2cc(=[N+]3CC[N+](=c4cc(-c5ccc(Cl)cc5)ss4)CC3)ss2)cc1
inactive: dose: 50.0 mg/kg/injection, schedule: Q01DX009 (ip), vehicle: water 102 % of control | dose: 100.0 mg/kg/injection, schedule: Q01DX009 (ip), vehicle: water 89 % of control | dose: 100.0 mg/kg/injection, schedule: Q04DX003 (ip), vehicle: water 106 % of control | dose: 200.0 mg/kg/injection, schedule: Q01DX009 (ip), vehicle: water 105 % of control | dose: 200.0 mg/kg/injection, schedule: Q04DX003 (ip), vehicle: water 104 % of control | dose: 400.0 mg/kg/injection, schedule: Q04DX003 (ip), vehicle: water 107 % of control
